# From BindingDB's records for doi:10.1016/s0024-3205(97)00885-0 (Eli Lilly, 1997)
# Assays:
# [1] = molecular target: 5-hydroxytryptamine receptor 2A (Homo sapiens, UniProt P28223)
# [2] = molecular target: 5-hydroxytryptamine receptor 1D (Homo sapiens, UniProt P28221)
# [3] = molecular target: 5-hydroxytryptamine receptor 2B (Homo sapiens, UniProt P41595)
# [4] = molecular target: 5-hydroxytryptamine receptor 7 (Homo sapiens, UniProt P34969)
# [5] = molecular target: D(2) dopamine receptor (Rattus norvegicus, UniProt P61169)
# [6] = molecular target: T1, Alpha-1A adrenergic receptor (Rattus norvegicus, UniProt P43140)
# T1 sequence (P43140 whole entry): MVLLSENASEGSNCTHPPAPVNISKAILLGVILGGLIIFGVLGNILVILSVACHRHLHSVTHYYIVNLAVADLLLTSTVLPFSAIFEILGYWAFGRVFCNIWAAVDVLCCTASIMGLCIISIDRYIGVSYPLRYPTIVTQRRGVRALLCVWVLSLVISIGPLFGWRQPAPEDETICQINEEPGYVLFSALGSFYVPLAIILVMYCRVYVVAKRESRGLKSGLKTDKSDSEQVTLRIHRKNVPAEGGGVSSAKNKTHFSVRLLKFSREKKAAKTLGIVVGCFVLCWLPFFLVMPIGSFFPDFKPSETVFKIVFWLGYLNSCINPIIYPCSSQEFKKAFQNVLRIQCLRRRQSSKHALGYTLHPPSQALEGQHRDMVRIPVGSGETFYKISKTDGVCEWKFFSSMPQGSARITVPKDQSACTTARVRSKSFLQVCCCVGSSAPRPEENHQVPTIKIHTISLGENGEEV
# [7] = molecular target: Gamma-aminobutyric acid receptor subunit alpha-1 (Rattus norvegicus, UniProt P62813)
# [8] = molecular target: T2, 5-hydroxytryptamine receptor 1F (Homo sapiens, UniProt P30939)
# T2 sequence (P30939 whole entry): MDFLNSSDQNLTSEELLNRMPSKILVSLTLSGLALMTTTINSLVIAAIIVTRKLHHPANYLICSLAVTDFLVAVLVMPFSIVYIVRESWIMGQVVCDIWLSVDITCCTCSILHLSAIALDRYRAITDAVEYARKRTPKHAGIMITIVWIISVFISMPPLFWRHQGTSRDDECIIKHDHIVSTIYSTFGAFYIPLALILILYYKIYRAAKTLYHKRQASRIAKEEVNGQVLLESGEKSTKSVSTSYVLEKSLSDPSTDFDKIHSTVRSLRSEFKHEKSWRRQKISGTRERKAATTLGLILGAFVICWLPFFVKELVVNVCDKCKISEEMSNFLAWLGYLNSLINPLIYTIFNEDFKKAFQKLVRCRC
# [9] = molecular target: T3, Alpha-2C adrenergic receptor (Rattus norvegicus, UniProt P22086)
# T3 sequence (P22086 whole entry): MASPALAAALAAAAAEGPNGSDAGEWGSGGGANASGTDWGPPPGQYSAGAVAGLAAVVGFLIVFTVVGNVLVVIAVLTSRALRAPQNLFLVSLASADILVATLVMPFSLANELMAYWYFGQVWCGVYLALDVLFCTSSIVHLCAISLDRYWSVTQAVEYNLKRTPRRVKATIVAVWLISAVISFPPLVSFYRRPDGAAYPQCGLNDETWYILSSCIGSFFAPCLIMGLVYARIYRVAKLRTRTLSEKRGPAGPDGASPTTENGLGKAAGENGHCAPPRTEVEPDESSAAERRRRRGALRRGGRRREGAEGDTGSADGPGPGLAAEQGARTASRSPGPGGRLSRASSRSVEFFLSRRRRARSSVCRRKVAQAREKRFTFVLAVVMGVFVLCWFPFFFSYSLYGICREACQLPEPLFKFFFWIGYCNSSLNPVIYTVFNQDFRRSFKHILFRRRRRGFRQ
# [10] = molecular target: T4, Muscarinic acetylcholine receptor M2 (Rattus norvegicus, UniProt P10980)
# T4 sequence (P10980 whole entry): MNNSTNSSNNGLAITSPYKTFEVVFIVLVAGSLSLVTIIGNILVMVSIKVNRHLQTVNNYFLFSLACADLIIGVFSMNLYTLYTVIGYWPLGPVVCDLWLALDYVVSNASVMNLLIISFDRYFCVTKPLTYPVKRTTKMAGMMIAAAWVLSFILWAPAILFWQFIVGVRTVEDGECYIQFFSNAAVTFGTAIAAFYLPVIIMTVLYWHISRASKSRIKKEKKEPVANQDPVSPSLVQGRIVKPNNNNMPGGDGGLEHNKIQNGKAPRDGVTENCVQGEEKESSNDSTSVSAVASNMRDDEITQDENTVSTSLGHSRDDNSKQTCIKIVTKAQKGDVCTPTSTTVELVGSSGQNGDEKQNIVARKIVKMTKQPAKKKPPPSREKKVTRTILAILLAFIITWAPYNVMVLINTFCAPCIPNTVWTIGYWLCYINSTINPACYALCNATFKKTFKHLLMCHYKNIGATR
# [11] = molecular target: D(1A) dopamine receptor (Rattus norvegicus, UniProt P18901)
# [12] = molecular target: Histamine H1 receptor (Rattus norvegicus, UniProt P31390)
# [13] = molecular target: Beta-2 adrenergic receptor (Rattus norvegicus, UniProt P10608)
# [14] = molecular target: T5, 5-hydroxytryptamine receptor 2C (Homo sapiens, UniProt P28335)
# T5 sequence (P28335 whole entry): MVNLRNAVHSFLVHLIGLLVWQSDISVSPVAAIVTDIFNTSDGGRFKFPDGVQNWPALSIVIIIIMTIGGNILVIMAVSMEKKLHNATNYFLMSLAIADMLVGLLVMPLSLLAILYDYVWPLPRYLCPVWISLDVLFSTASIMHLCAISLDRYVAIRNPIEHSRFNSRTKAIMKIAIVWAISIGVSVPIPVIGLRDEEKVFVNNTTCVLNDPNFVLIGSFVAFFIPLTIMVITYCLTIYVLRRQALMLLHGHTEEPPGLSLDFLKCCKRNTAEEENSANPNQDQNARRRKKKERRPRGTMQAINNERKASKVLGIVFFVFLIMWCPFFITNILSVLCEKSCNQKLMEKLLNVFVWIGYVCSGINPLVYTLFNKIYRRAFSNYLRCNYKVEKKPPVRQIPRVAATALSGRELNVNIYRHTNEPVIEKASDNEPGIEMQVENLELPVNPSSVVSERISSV
# Sequence of 5-hydroxytryptamine receptor 2A (P28223 whole entry): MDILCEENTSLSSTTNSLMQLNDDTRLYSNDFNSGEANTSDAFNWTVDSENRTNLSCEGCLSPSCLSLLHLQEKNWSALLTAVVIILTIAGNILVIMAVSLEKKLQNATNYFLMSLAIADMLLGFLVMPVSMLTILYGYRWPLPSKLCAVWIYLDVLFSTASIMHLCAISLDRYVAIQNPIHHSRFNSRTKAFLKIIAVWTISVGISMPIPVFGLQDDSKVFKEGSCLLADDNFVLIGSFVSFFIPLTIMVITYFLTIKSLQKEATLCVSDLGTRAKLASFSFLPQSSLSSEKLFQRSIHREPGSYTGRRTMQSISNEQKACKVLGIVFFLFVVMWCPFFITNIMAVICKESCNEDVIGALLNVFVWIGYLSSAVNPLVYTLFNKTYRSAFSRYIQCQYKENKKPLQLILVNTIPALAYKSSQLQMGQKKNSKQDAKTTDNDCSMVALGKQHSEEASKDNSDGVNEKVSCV
# Sequence of D(1A) dopamine receptor (P18901 whole entry): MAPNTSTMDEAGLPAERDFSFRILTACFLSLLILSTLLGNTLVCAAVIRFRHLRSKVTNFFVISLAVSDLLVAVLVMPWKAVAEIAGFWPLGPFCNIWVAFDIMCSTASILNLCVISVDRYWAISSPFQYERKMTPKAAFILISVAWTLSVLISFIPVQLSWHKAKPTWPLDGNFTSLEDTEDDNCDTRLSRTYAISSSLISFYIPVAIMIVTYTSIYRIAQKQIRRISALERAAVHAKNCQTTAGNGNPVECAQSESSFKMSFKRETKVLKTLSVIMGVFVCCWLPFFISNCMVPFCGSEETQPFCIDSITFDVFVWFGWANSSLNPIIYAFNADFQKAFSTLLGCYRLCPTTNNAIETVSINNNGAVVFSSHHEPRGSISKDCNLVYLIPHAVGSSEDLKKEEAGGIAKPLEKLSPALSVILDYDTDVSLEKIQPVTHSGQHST
# Sequence of Beta-2 adrenergic receptor (P10608 whole entry): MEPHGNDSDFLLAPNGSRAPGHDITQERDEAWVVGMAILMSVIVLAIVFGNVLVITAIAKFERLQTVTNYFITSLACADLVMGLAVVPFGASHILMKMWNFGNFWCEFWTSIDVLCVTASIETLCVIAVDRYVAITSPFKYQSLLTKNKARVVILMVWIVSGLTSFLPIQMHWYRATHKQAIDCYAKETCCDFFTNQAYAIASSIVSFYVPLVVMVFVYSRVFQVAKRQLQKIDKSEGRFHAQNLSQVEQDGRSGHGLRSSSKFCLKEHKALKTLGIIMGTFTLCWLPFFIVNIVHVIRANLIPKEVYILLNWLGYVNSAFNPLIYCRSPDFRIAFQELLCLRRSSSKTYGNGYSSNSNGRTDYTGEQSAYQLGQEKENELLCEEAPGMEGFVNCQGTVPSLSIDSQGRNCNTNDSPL
# Sequence of D(2) dopamine receptor (P61169 whole entry): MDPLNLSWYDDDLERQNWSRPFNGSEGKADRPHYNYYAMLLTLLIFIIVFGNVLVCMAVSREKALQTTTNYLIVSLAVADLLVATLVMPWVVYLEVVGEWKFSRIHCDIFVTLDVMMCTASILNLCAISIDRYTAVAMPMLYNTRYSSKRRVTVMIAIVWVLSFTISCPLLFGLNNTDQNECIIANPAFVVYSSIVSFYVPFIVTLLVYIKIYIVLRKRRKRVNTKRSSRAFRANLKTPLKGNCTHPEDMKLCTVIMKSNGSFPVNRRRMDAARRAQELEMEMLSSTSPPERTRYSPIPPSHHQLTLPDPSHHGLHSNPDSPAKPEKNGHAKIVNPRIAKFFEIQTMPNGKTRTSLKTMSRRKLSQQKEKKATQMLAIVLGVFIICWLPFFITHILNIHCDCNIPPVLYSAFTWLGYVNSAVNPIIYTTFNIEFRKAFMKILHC
# Sequence of Gamma-aminobutyric acid receptor subunit alpha-1 (P62813 whole entry): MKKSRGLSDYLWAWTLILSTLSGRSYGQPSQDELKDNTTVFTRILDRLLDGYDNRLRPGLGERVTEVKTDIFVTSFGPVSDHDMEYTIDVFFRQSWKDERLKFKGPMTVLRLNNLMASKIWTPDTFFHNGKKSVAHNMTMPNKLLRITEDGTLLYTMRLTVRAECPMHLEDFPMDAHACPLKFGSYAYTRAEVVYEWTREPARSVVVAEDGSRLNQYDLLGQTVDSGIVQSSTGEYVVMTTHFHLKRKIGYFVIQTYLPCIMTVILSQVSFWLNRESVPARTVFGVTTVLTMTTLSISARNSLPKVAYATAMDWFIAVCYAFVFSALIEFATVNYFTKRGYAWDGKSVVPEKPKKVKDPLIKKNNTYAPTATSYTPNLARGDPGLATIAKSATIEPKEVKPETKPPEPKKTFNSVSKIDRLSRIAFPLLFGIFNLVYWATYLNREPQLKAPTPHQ
# Sequence of 5-hydroxytryptamine receptor 2B (P41595 whole entry): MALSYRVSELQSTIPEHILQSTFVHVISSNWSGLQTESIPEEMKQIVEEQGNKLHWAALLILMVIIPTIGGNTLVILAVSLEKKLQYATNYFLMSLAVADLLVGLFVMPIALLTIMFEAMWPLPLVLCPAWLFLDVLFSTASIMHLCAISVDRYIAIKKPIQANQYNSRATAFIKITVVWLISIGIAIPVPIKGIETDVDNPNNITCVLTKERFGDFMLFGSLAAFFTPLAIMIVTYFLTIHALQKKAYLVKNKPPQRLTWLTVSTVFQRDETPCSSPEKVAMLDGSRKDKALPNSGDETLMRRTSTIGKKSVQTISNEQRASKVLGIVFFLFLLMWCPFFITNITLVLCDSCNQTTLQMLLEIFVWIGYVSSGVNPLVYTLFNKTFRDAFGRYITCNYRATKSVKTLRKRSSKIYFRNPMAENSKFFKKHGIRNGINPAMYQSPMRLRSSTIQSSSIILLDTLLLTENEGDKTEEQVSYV
# Sequence of Histamine H1 receptor (P31390 whole entry): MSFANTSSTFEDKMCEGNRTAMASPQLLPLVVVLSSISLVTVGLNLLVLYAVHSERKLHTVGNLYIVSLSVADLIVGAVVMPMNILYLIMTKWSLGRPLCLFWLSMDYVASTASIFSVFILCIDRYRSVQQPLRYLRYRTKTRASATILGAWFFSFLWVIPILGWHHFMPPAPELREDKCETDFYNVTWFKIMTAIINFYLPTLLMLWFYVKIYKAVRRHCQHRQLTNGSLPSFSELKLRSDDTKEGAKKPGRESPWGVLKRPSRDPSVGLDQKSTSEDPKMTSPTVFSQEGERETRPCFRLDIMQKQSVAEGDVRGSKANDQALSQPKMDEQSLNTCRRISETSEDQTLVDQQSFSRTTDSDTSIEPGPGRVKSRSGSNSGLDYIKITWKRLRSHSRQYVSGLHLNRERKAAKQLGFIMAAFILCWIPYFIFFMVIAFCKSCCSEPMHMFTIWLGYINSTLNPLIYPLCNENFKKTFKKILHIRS
# Sequence of 5-hydroxytryptamine receptor 1D (P28221 whole entry): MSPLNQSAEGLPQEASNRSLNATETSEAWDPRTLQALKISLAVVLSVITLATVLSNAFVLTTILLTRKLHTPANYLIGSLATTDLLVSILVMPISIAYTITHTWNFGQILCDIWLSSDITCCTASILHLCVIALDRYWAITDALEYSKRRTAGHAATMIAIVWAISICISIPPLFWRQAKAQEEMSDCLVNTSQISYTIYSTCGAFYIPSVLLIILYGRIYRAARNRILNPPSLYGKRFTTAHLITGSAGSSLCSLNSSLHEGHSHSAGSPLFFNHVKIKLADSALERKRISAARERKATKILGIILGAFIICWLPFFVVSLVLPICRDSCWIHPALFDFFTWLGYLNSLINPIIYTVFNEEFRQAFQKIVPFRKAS
# Sequence of 5-hydroxytryptamine receptor 7 (P34969 whole entry): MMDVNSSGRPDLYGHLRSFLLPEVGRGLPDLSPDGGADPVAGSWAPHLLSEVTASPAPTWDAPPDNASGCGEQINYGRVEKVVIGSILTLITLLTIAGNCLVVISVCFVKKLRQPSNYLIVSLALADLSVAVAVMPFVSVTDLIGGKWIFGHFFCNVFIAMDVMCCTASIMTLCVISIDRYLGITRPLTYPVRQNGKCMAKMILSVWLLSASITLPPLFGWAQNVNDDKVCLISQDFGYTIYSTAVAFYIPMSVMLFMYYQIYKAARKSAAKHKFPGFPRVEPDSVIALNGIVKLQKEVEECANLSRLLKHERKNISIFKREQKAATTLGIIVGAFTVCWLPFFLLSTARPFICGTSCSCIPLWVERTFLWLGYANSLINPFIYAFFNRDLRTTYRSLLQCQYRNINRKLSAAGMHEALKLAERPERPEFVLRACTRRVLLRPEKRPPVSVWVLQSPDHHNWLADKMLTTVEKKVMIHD
smiles,measurement,setting,value
CN(C)C1CCc2[nH]c3ccc(NC(=O)c4ccc(F)cc4)cc3c2C1 (centres undefined) [NSC_5311097],Ki,[1],3.94 µM
same,Ki,[2],0.575 µM
same,Ki,[3],1.69 µM
same,Ki,[4],4.85 µM
same,Ki,[5],> 10 µM
same,Ki,[6],5.06 µM
same,Ki,[7],> 10 µM
same,Ki,[8],0.006 µM
same,Ki,[9],3.69 µM
same,Ki,[10],> 10 µM
same,Ki,[11],> 10 µM
same,Ki,[12],> 10 µM
same,Ki,[13],> 10 µM
same,Ki,[14],3.5 µM
